Bridge positions count the residues as written; N and C are the ends. Peptide text beside a SMILES is read from it.
Target: human stratum cornium chymotrypsin (hSCC) (Homo sapiens, UniProt P49862)
Assay: Mass spectrometric screening of a protein library against immobilized hSCC in the presence of competitor Ecotin
Type: binding
Details: library 10 nM per member, competitor Ecotin at 1 nM, 100 nM, 4 hrs incubation, biotinylated hSCC on streptavidin beads
From the text: In this Example, mass spectrometric screening experiments are described. FIGS. 10-13 provide data and calculations obtained during these experiments. Inhibitors of human stratum cornium chymotrypsin (hSCC) were screened from a protein library made of BBI-loop-BLA (See e.g., U.S. patent application Ser. Nos. 10/984,270 and 10/984,410; and PCT Appln. Nos. US04/36976, US04/36979; and US04/36980), all of which are incorporated by reference herein). The protein library consisted of a protein backbone in which three non-consecutive positions were randomized (cysteine constrained) at the N-terminus of the protein. HSCC (screening target) (Swissprot, accession number P49862) was biotinylated and immobilized on streptavidin beads (MagnaBind Beads; Pierce).
HSCC was incubated with a protein library at 10 nM per library member in the presence of a competitor (Ecotin; Sigma) added at 1 nM, 10 nM, and 100 nM concentrations. Following incubation (4 hrs), the beads were washed with incubation buffer to remove nonspecific binders and specific binders were eluted with an elution solution.
The recovered binders were concentrated (vacuum concentration), resuspended in a digestion buffer, reduced, alkylated, and digested with proteolytic enzyme (Lys-c; Roche). The resulting protein digests were analyzed by capillary LC-ESI-MS/MS. […]

Sequence of human stratum cornium chymotrypsin (hSCC) (P49862 30-253): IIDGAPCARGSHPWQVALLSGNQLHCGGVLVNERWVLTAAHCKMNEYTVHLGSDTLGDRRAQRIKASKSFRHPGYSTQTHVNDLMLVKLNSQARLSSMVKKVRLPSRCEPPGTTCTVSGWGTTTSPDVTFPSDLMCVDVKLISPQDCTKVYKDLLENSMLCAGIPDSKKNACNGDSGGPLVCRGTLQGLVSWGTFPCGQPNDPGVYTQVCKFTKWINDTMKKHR

C[C@@H](O)[C@@H]1NC(=O)[C@@H](NC(=O)[C@@H]2CCCN2)CSSC[C@@H](C(=O)N[C@@H](Cc2ccc(O)cc2)C(=O)NCC(=O)NCC(=O)NCC(=O)N[C@@H](CCCCN)C(=O)O)NC(=O)[C@H](CCC(N)=O)NC(=O)[C@@H]2CCCN2C(=O)[C@@H]2CCCN2C(=O)[C@H](Cc2ccc(O)cc2)NC(=O)[C@H](CO)NC(=O)[C@H](Cc2ccccc2)NC1=O [pj02] (H-PCTFSYPPQCYGGGK-OH; disulfide 2-10 (inferred); N-terminus and C-terminus assumed)
binder observed after elution (capillary LC-ESI-MS/MS): observed under all conditions

Source: US20110098184A1, “Competitve differntial screeing” (priority 2004, published 2011)
